± gives the expanded uncertainty stated by the source.
Test: xn = mol fraction of the nth substance listed
Settings: 313.15 K, Fluid (supercritical or subcritical phases)

CCOC(C)=O [ethyl acetate] + O=C=O
mass density [kg/m3]
Settings | 1000 kPa | 2000 kPa | 3000 kPa | 4000 kPa | 5000 kPa | 6000 kPa | 7000 kPa | 8000 kPa | 9000 kPa | 10000 kPa
x2 = 0 | 876.9 ± 0.4 | 878 ± 0.4 | 878.9 ± 0.4 | 880 ± 0.4 | 881 ± 0.4 | 881.9 ± 0.4 | 882.9 ± 0.5 | 883.9 ± 0.5 | 884.9 ± 0.5 | 885.9 ± 0.5
x2 = 0.1 | 880.2 ± 0.4 | 881.4 ± 0.4 | 882.5 ± 0.4 | 883.7 ± 0.4 | 884.7 ± 0.4 | 885.9 ± 0.4 | 887 ± 0.4 | 888 ± 0.5 | 889.1 ± 0.5 | 890.1 ± 0.5
x2 = 0.2 | – | 884.1 ± 0.4 | 885.4 ± 0.4 | 886.7 ± 0.4 | 887.9 ± 0.4 | 889.2 ± 0.4 | 890.4 ± 0.4 | 891.6 ± 0.4 | 892.7 ± 0.5 | 893.9 ± 0.5
x2 = 0.3 | – | 886.2 ± 0.4 | 887.6 ± 0.4 | 889.1 ± 0.4 | 890.5 ± 0.4 | 891.9 ± 0.4 | 893.3 ± 0.4 | 894.6 ± 0.4 | 896 ± 0.5 | 897.2 ± 0.5
x2 = 0.4 | – | – | 888.8 ± 0.4 | 890.6 ± 0.4 | 892.2 ± 0.4 | 893.9 ± 0.4 | 895.4 ± 0.4 | 897 ± 0.4 | 898.6 ± 0.4 | 900 ± 0.5
x2 = 0.5 | – | – | – | 889.9 ± 0.4 | 891.9 ± 0.4 | 893.9 ± 0.4 | 895.8 ± 0.4 | 897.7 ± 0.4 | 899.6 ± 0.4 | 901.4 ± 0.5
x2 = 0.6 | – | – | – | – | – | 890.1 ± 0.4 | 892.6 ± 0.4 | 895 ± 0.4 | 897.4 ± 0.5 | 899.7 ± 0.5
x2 = 0.7 | – | – | – | – | – | 879.2 ± 1.6 | 882.7 ± 0.5 | 886.2 ± 0.5 | 889.4 ± 0.5 | 892.5 ± 0.5
x2 = 0.8 | – | – | – | – | – | – | 858.2 ± 2.2 | 863.7 ± 0.5 | 869 ± 0.5 | 873.9 ± 0.5
x2 = 0.9 | – | – | – | – | – | – | – | 800.6 ± 3.1 | 813 ± 0.7 | 823.7 ± 0.7
x2 = 0.95 | – | – | – | – | – | – | – | – | 745.6 ± 2 | 767.4 ± 0.9
